From the supplement of paper PMC11451515

Test system: SEM cells
Assay: cell viability relative to DMSO control; higher = less cytotoxic
Settings: 48 h
How it was run: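 Three leukemia lines were tested: NOMO1 and SEM at 500 cells/well and P12-Ichikawa at 1000 cells/well. Each was adapted for at least four passages in each medium and seeded in 5 μl in 1536-well plates, and library compounds in DMSO were pin-dosed from 47 μM to 0.79 nM in 11 threefold steps. After 48 h at 37°C, CellTiter-Glo One luminescence was read. Viability is a percentage relative to DMSO wells on each plate, with cell-free wells as background.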

[1] = HPLM + 10% dialyzed FBS, 0.000781 µM
[2] = HPLM + 10% dialyzed FBS, 0.00234 µM
[3] = HPLM + 10% dialyzed FBS, 0.00702 µM
[4] = HPLM + 10% dialyzed FBS, 0.0211 µM
[5] = HPLM + 10% dialyzed FBS, 0.0632 µM
[6] = HPLM + 10% dialyzed FBS, 0.19 µM
[7] = HPLM + 10% dialyzed FBS, 0.569 µM
[8] = HPLM + 10% dialyzed FBS, 1.71 µM
[9] = HPLM + 10% dialyzed FBS, 5.12 µM
[10] = HPLM + 10% dialyzed FBS, 15.4 µM
[11] = HPLM + 10% dialyzed FBS, 46.1 µM
[12] = RPMI 5 mM glucose + 10% FBS, 0.000781 µM
[13] = RPMI 5 mM glucose + 10% FBS, 0.00234 µM
[14] = RPMI 5 mM glucose + 10% FBS, 0.00702 µM
[15] = RPMI 5 mM glucose + 10% FBS, 0.0211 µM
[16] = RPMI 5 mM glucose + 10% FBS, 0.0632 µM
[17] = RPMI 5 mM glucose + 10% FBS, 0.19 µM
[18] = RPMI 5 mM glucose + 10% FBS, 0.569 µM
[19] = RPMI 5 mM glucose + 10% FBS, 1.71 µM
[20] = RPMI 5 mM glucose + 10% FBS, 5.12 µM
[21] = RPMI 5 mM glucose + 10% FBS, 15.4 µM
[22] = RPMI 5 mM glucose + 10% FBS, 46.1 µM
[23] = RPMI 5 mM glucose + 10% dialyzed FBS, 0.000781 µM
[24] = RPMI 5 mM glucose + 10% dialyzed FBS, 0.00234 µM
[25] = RPMI 5 mM glucose + 10% dialyzed FBS, 0.00702 µM
[26] = RPMI 5 mM glucose + 10% dialyzed FBS, 0.0211 µM
[27] = RPMI 5 mM glucose + 10% dialyzed FBS, 0.0632 µM
[28] = RPMI 5 mM glucose + 10% dialyzed FBS, 0.19 µM
[29] = RPMI 5 mM glucose + 10% dialyzed FBS, 0.569 µM
[30] = RPMI 5 mM glucose + 10% dialyzed FBS, 1.71 µM
[31] = RPMI 5 mM glucose + 10% dialyzed FBS, 5.12 µM
[32] = RPMI 5 mM glucose + 10% dialyzed FBS, 15.4 µM
[33] = RPMI 5 mM glucose + 10% dialyzed FBS, 46.1 µM

SMILES | cell viability [1] | cell viability [2] | cell viability [3] | cell viability [4] | cell viability [5] | cell viability [6] | cell viability [7] | cell viability [8] | cell viability [9] | cell viability [10] | cell viability [11] | cell viability [12] | cell viability [13] | cell viability [14] | cell viability [15] | cell viability [16] | cell viability [17] | cell viability [18] | cell viability [19] | cell viability [20] | cell viability [21] | cell viability [22] | cell viability [23] | cell viability [24] | cell viability [25] | cell viability [26] | cell viability [27] | cell viability [28] | cell viability [29] | cell viability [30] | cell viability [31] | cell viability [32] | cell viability [33]
CCC(=O)N1CCN(CC1)C2=C(C=C(C=C2)N3C(=O)\C=C/C4=C3C5=CC(=CC=C5N=C4)C6=CN=C7C=CC=CC7=C6)C(F)(F)F | 77.6% | 88.7% | 85.9% | 73.8% | 57.8% | 67.8% | 46.9% | 48.7% | 47.5% | 34.4% | 29% | 97% | 102% | 90.1% | 80.6% | 56.7% | 59.7% | 48% | 45% | 45% | 47.9% | 30.9% | 83.4% | 92.6% | 91.5% | 84.1% | 61.2% | 62.7% | 46% | 54.7% | 42.5% | 42.8% | 33.1%
Clc1ccc(C(c2ccc(Cl)cc2)[n+]2ccn(CC(OCc3ccc(Cl)cc3Cl)c3ccc(Cl)cc3Cl)c2)cc1 (stereo not drawn) | 108% | 121% | 107% | 105% | 117% | 112% | 108% | 117% | 117% | 61% | 5.22% | 109% | 111% | 117% | 120% | 132% | 127% | 124% | 111% | 106% | 37.7% | 1.63% | 112% | 117% | 118% | 109% | 108% | 123% | 124% | 115% | 125% | 83.3% | 3.06%
CCC(=O)O[C@@]1(CC[C@H]2[C@@H]3CCC/4=C/C(=O)CC[C@]4(C)[C@H]3CC[C@]12C)C(=O)CO | 95.3% | 100% | 101% | 110% | 109% | 98.8% | 86.7% | 57.4% | 46.1% | 27.3% | 23.7% | 63.3% | 83.6% | 86% | 84% | 84.8% | 76.1% | 51% | 35.3% | 24.3% | 14.1% | 12.7% | 95.1% | 103% | 99.9% | 88.5% | 98% | 91.7% | 79.7% | 47.2% | 27.6% | 19.5% | 13.8%
C/C=C(\C)C(=O)N[C@@H](c1ccccc1)[C@@H](O)C(=O)O[C@H]1C[C@@]2(O)[C@@H](OC(=O)c3ccccc3)[C@@H]3[C@]4(OC(C)=O)CO[C@@H]4C[C@H](O)[C@@]3(C)C(=O)[C@H](OC(C)=O)C(=C1C)C2(C)C | 34% | 24.3% | 33.2% | 20.6% | 19.2% | 19.8% | 14.9% | 19.6% | 19.9% | 15.9% | 20.5% | 45.4% | 22.3% | 23.3% | 18.4% | 14.1% | 15.5% | 15.4% | 14.9% | 14.3% | 12.5% | 12.2% | 32.4% | 26.1% | 25% | 17.5% | 16.2% | 13.6% | 13.1% | 14.7% | 16.6% | 15.5% | 16.2%
CC(C)[C@]12O[C@H]1[C@@H]3O[C@@]34[C@@]5(C)CC\C6=C(COC6=O)/[C@@H]5C[C@@H]7O[C@]47[C@@H]2O | 88.8% | 8.24% | 7.05% | 7.2% | 8.43% | 7.98% | 7.67% | 7.16% | 5.34% | 3.24% | 2.08% | 70.6% | 5.86% | 5.11% | 4.85% | 5.84% | 5.43% | 4.78% | 4.12% | 3.56% | 2.23% | 1.15% | 107% | 6.37% | 6.75% | 6.32% | 7.36% | 7.3% | 6.55% | 6.33% | 4.78% | 3.05% | 2.21%
Clc1ccc(C(c2ccccc2Cl)C(Cl)Cl)cc1 (stereo not drawn) | 119% | 116% | 120% | 121% | 139% | 36.1% | 117% | 126% | 33.2% | 109% | 85.9% | 116% | 121% | 111% | 110% | 112% | 36.7% | 137% | 106% | 12.6% | 97.6% | 75.1% | – | – | – | – | – | – | – | – | – | – | –
COc1cc(N2CCC(N3CCN(C)CC3)CC2)ccc1Nc1ncc(Cl)c(Nc2ccccc2[S+](=O)([O-])C(C)C)n1 | 50.9% | 55.6% | 75.8% | 89.1% | 127% | 84.1% | 89.4% | 19.3% | 22% | 17.5% | 13.6% | 48.1% | 57.5% | 93.2% | 105% | 117% | 84.1% | 72.7% | 16.1% | 12.9% | 8.26% | 4.14% | 58.8% | 63.1% | 86.6% | 117% | 119% | 86.2% | 90.1% | 17.8% | 14.9% | 15% | 11.9%
CC1(C)CCC(C)(C)c2cc(NC(=O)c3ccc(C(=O)O)cc3)ccc21 | 88.1% | 107% | 98.5% | 107% | 115% | 101% | 124% | 110% | 104% | 120% | 97.4% | 100% | 93.3% | 111% | 115% | 119% | 111% | 113% | 111% | 116% | 123% | 105% | 90.9% | 92.4% | 84.7% | 95.6% | 91.9% | 93% | 103% | 94.6% | 105% | 101% | 87.7%
CC(C)C[C@H](CC(=O)O)C(=O)N[C@@H](Cc1c[nH]c2ccccc12)C(=O)N[C@@H](C)c1ccccc1 | 96.1% | 100% | 119% | 113% | 106% | 105% | 7.87% | 92.1% | 112% | 73.1% | 54% | 96.1% | 112% | 125% | 116% | 110% | 122% | 8.87% | 86.2% | 96.9% | 65.9% | 54.3% | 77.7% | 90.4% | 97.3% | 113% | 89.6% | 87.2% | 8.39% | 79.4% | 90.2% | 53.7% | 46.4%
Nc1nccc(-c2ccc3noc(-c4ccc(Cl)cc4)c3c2)n1 | – | – | – | – | – | – | – | – | – | – | – | 98.5% | 103% | 99.3% | 102% | 93.9% | 116% | 112% | 104% | 89.1% | 88.9% | 92.7% | 118% | 119% | 119% | 119% | 104% | 115% | 126% | 119% | 108% | 114% | 108%
C[S+](=O)([O-])N1CCN(Cc2cc3nc(-c4cccc5[nH]ncc45)nc(N4CCOCC4)c3s2)CC1 | 97.5% | 121% | 116% | 111% | 103% | 92.4% | 82% | 74.9% | 56.9% | 31.7% | 12.9% | 106% | 121% | 129% | 105% | 112% | 108% | 89% | 67.4% | 46.6% | 23.2% | 8.22% | 115% | 122% | 129% | 127% | 110% | 106% | 78.6% | 78% | 57% | 42.6% | 16%
CN(C)CCc1c[nH]c2ccc(Cn3cncn3)cc12 | 76.1% | 88.7% | 97.4% | 96.4% | 98% | 48.5% | 55% | 23% | 9.54% | 8.01% | 7.53% | 86% | 91% | 86.9% | 84.9% | 75.8% | 30.7% | 36.3% | 10.4% | 7.9% | 7.16% | 6.13% | 91.4% | 96.1% | 88.9% | 97.5% | 79.3% | 43.4% | 50.7% | 18.2% | 9.37% | 8.33% | 6.69%
COCC(=O)NC/C=C/c1ccc2ncnc(Nc3ccc(Oc4ccc(C)nc4)c(C)c3)c2c1 | 87.2% | 87.7% | 87.1% | 96.4% | 92.4% | 92.3% | 108% | 90.3% | 82.2% | 89.1% | 66.5% | 102% | 105% | 124% | 95.2% | 105% | 98.8% | 103% | 97.8% | 93% | 99.9% | 34.6% | 78.8% | 82.9% | 93.6% | 95.6% | 101% | 86.8% | 94.2% | 91% | 71.6% | 88% | 49%
COCCCC/C(=N\OCCN)c1ccc(C(F)(F)F)cc1 | 86.4% | 100% | 75.7% | 80.8% | 92% | 76.1% | 83.9% | 96.9% | 75.4% | 77% | 28.1% | 94.3% | 86.1% | 79.7% | 94.5% | 92.7% | 85.9% | 87.2% | 92% | 74.6% | 73.7% | 35.6% | 105% | 103% | 88.7% | 95.8% | 111% | 100% | 91.6% | 106% | 99.4% | 93.1% | 52.3%
CCN(CC)CCCC(C)Nc1ccnc2cc(Cl)ccc12 (stereo not drawn) | 108% | 113% | 116% | 121% | 122% | 128% | 116% | 117% | 134% | 127% | 102% | 102% | 117% | 119% | 104% | 109% | 111% | 100% | 129% | 118% | 106% | 94.4% | 105% | 98.6% | 103% | 103% | 99.9% | 115% | 109% | 129% | 104% | 87% | 92.4%
